Experimental data as given in ChEMBL document CHEMBL1201862, “PubChem BioAssay data set” (2004).
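1) Cells in 96-well plates. 2) Compound, 48 h, 5 concentrations. 3) Linear interpolation between surrounding doses. 4) Unreached endpoint = highest concentration. The concentration for 50% growth inhibition is given as GI50.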 Activity calls are given as the source filed them. No stated cut-off is given here; in the data, active = GI50 up to about 1.1 µM and inactive = higher.

How the values were obtained:
Assay in all cases: growth of human tumour cells (NCI), 48 h
[1] = tested on: TK-10
[2] = tested on: A549
[3] = tested on: HCT-116
[4] = tested on: UACC-257
[5] = tested on: HOP-92
[6] = tested on: HCC 2998
[7] = tested on: SN12C
[8] = tested on: MOLT-4
[9] = tested on: DLD-1
[10] = tested on: IGROV-1
[11] = tested on: U-251
[12] = tested on: RXF 393
[13] = tested on: OVCAR-5
[14] = tested on: HT-29
[15] = tested on: CCRF-CEM
[16] = tested on: NCI-H226
[17] = tested on: SF-295
[18] = tested on: DMS-114
[19] = tested on: ACHN
[20] = tested on: M19-MEL
[21] = tested on: SK-OV-3
[22] = tested on: HL-60
[23] = tested on: Malme-3M
[24] = tested on: HOP-18
[25] = tested on: HCT-15
[26] = tested on: UACC-62
[27] = tested on: OVCAR-3
[28] = tested on: SK-MEL-5
[29] = tested on: NCI-H522
[30] = tested on: OVCAR-4
[31] = tested on: A498
[32] = tested on: SK-MEL-28
[33] = tested on: SNB-19
[34] = tested on: LXFL 529
[35] = tested on: KM-20L2
[36] = tested on: SF-539
[37] = tested on: EKVX
[38] = tested on: KM12
[39] = tested on: COLO 205
[40] = tested on: K562
[41] = tested on: LOX IMVI
[42] = tested on: HOP-62
[43] = tested on: M14
[44] = tested on: SK-MEL-2
[45] = tested on: SR
[46] = tested on: 786-0
[47] = tested on: UO-31
[48] = tested on: OVCAR-8
[49] = tested on: SF-268
[50] = tested on: SNB-75
[51] = tested on: NCI-H23
[52] = tested on: SNB-78
[53] = tested on: NCI-H460
[54] = tested on: RPMI-8226
[55] = tested on: CAKI-1
[56] = tested on: SW-620
[57] = tested on: DMS-273

COC(=O)[C@@]1(C)/C(=N/NS(=O)(=O)c2ccc(C)cc2)CCC[C@@H]1C
GI50 [1]: > 100 µM (inactive)
GI50 [2]: > 100 µM (inactive)
GI50 [3]: > 100 µM (inactive)
GI50 [4]: > 100 µM (inactive)
GI50 [5]: > 100 µM (inactive)
GI50 [6]: > 100 µM (inactive)
GI50 [7]: > 100 µM (inactive)
GI50 [8]: > 100 µM (inactive)
GI50 [9]: 44.7 µM (inactive)
GI50 [10]: > 100 µM (inactive)
GI50 [11]: > 100 µM (inactive)
GI50 [12]: > 100 µM (inactive)
GI50 [13]: > 100 µM (inactive)
GI50 [14]: > 100 µM (inactive)
GI50 [15]: 27.8 µM (inactive)
GI50 [16]: > 100 µM (inactive)
GI50 [17]: > 100 µM (inactive)
GI50 [18]: 24.3 µM (inactive)
GI50 [19]: > 100 µM (inactive)
GI50 [20]: > 100 µM (inactive)
GI50 [21]: > 100 µM (inactive)
GI50 [22]: 6.37 µM (inactive)
GI50 [23]: > 100 µM (inactive)
GI50 [24]: > 100 µM (inactive)
GI50 [25]: 16.3 µM
GI50 [26]: > 100 µM (inactive)
GI50 [27]: > 100 µM (inactive)
GI50 [28]: > 100 µM (inactive)
GI50 [29]: 41.8 µM (inactive)
GI50 [30]: > 100 µM (inactive)
GI50 [31]: > 100 µM (inactive)
GI50 [32]: > 100 µM (inactive)
GI50 [33]: > 100 µM (inactive)
GI50 [34]: > 100 µM (inactive)
GI50 [35]: > 100 µM (inactive)
GI50 [36]: 88.3 µM (inactive)
GI50 [37]: > 100 µM (inactive)
GI50 [38]: > 100 µM (inactive)
GI50 [39]: 69.2 µM (inactive)
GI50 [40]: 74.3 µM (inactive)
GI50 [41]: 14.3 µM (inactive)
GI50 [42]: > 100 µM (inactive)
GI50 [43]: > 100 µM (inactive)
GI50 [44]: > 100 µM (inactive)
GI50 [45]: 19.8 µM (inactive)
GI50 [46]: > 100 µM (inactive)
GI50 [47]: > 100 µM (inactive)
GI50 [48]: > 100 µM (inactive)
GI50 [49]: > 100 µM (inactive)
GI50 [50]: > 100 µM (inactive)
GI50 [51]: > 100 µM (inactive)
GI50 [52]: > 100 µM (inactive)
GI50 [53]: 34 µM (inactive)
GI50 [54]: 30.8 µM (inactive)
GI50 [55]: > 100 µM (inactive)

NCC1(N2CCOCC2)C2CCCC21CO (stereo unspecified)
GI50 [2]: > 100 µM (inactive)
GI50 [3]: > 100 µM (inactive)
GI50 [4]: > 100 µM (inactive)
GI50 [5]: > 100 µM (inactive)
GI50 [6]: > 100 µM (inactive)
GI50 [7]: > 100 µM (inactive)
GI50 [8]: > 100 µM (inactive)
GI50 [9]: > 100 µM (inactive)
GI50 [56]: > 100 µM (inactive)
GI50 [10]: > 100 µM (inactive)
GI50 [11]: > 100 µM (inactive)
GI50 [12]: > 100 µM (inactive)
GI50 [13]: > 100 µM (inactive)
GI50 [14]: > 100 µM (inactive)
GI50 [15]: > 100 µM (inactive)
GI50 [16]: > 100 µM (inactive)
GI50 [17]: > 100 µM (inactive)
GI50 [18]: > 100 µM (inactive)
GI50 [19]: > 100 µM (inactive)
GI50 [20]: > 100 µM (inactive)
GI50 [21]: > 100 µM (inactive)
GI50 [22]: > 100 µM (inactive)
GI50 [23]: > 100 µM (inactive)
GI50 [24]: > 100 µM (inactive)
GI50 [25]: > 100 µM
GI50 [27]: > 100 µM (inactive)
GI50 [28]: > 100 µM (inactive)
GI50 [29]: > 100 µM (inactive)
GI50 [30]: > 100 µM (inactive)
GI50 [32]: > 100 µM (inactive)
GI50 [33]: > 100 µM (inactive)
GI50 [34]: > 100 µM (inactive)
GI50 [36]: > 100 µM (inactive)
GI50 [38]: > 100 µM (inactive)
GI50 [39]: > 100 µM (inactive)
GI50 [40]: > 100 µM (inactive)
GI50 [57]: > 100 µM (inactive)
GI50 [42]: > 100 µM (inactive)
GI50 [43]: > 100 µM (inactive)
GI50 [44]: > 100 µM (inactive)
GI50 [45]: > 100 µM (inactive)
GI50 [46]: > 100 µM (inactive)
GI50 [47]: > 100 µM (inactive)
GI50 [48]: > 100 µM (inactive)
GI50 [49]: > 100 µM (inactive)
GI50 [50]: > 100 µM (inactive)
GI50 [51]: > 100 µM (inactive)
GI50 [52]: > 100 µM (inactive)
GI50 [53]: > 100 µM (inactive)
GI50 [54]: > 100 µM (inactive)
GI50 [55]: > 100 µM (inactive)

Cn1cc2ccccc2c1-c1nc(F)nc(Oc2ccc3c(c2)CC[C@@H]2C3CC[C@]3(C)C(O)CCC23)n1 (stereo partly specified)
GI50 [1]: 16.2 µM (inactive)
GI50 [2]: 22.1 µM (inactive)
GI50 [3]: 17.5 µM (inactive)
GI50 [4]: 18.8 µM (inactive)
GI50 [5]: 18.4 µM (inactive)
GI50 [6]: 19.9 µM (inactive)
GI50 [7]: 15.4 µM (inactive)
GI50 [8]: 17.6 µM (inactive)
GI50 [9]: 15.9 µM (inactive)
GI50 [56]: 19.5 µM (inactive)
GI50 [10]: 13.7 µM (inactive)
GI50 [11]: 12 µM (inactive)
GI50 [12]: 22.6 µM (inactive)
GI50 [13]: 18.6 µM (inactive)
GI50 [15]: 5.78 µM (inactive)
GI50 [16]: 52.7 µM (inactive)
GI50 [17]: 15.3 µM (inactive)
GI50 [18]: 13.8 µM (inactive)
GI50 [19]: 18.5 µM (inactive)
GI50 [20]: 21.7 µM (inactive)
GI50 [21]: 17.2 µM (inactive)
GI50 [23]: 18.3 µM (inactive)
GI50 [24]: 15.3 µM (inactive)
GI50 [25]: 14.6 µM
GI50 [27]: 17.7 µM (inactive)
GI50 [28]: 15 µM (inactive)
GI50 [29]: 10.9 µM (inactive)
GI50 [30]: 14.2 µM (inactive)
GI50 [32]: 16.3 µM (inactive)
GI50 [33]: 18.7 µM (inactive)
GI50 [34]: 10.4 µM (inactive)
GI50 [35]: 20.2 µM (inactive)
GI50 [36]: 17.4 µM (inactive)
GI50 [37]: > 10 µM (inactive)
GI50 [38]: > 10 µM (inactive)
GI50 [39]: 22.3 µM (inactive)
GI50 [40]: 29.2 µM (inactive)
GI50 [57]: 19.8 µM (inactive)
GI50 [41]: 15.8 µM (inactive)
GI50 [42]: 16.7 µM (inactive)
GI50 [43]: 15.9 µM (inactive)
GI50 [44]: 16.5 µM (inactive)
GI50 [46]: 16.9 µM (inactive)
GI50 [47]: 21.7 µM (inactive)
GI50 [48]: 17.4 µM (inactive)
GI50 [49]: 17.3 µM (inactive)
GI50 [50]: 14.2 µM (inactive)
GI50 [51]: > 10 µM (inactive)
GI50 [52]: 12.2 µM (inactive)
GI50 [55]: > 10 µM (inactive)
